Measured values published in patent US20210122739A1, “NOVEL SULFONAMIDE CARBOXAMIDE COMPOUNDS” (Inflazome Limited, priority 2017, published 2021).

What follows are compounds tested against NLRP3 (Homo sapiens, UniProt Q96P20) (assay: THP-1 cells pyroptosis assay). Details: 1.0 μg/ml LPS, nigericin 5 μM, resazurin readout.
Format: cell-based
Set-up: Seed THP-1 cells (25,000 cells/well) containing 1.0 μg/ml LPS; host or cells: THP-1 cells, LPS-primed, nigericin-stimulated
Excerpt: It is well established that the activation of NLRP3 leads to cell pyroptosis and this feature plays an important part in the manifestation of clinical disease (Yan-gang Liu et al., Cell Death & Disease, 2017, 8(2), e2579; Alexander Wree et al., Hepatology, 2014, 59(3), 898-910; Alex Baldwin et al., Journal of Medicinal Chemistry, 2016, 59(5), 1691-1710; Ema Ozaki et al., Journal of Inflammation Research, 2015, 8, 15-27; Zhen Xie & Gang Zhao, Neuroimmunology Neuroinflammation, 2014, 1(2), 60-65; Mattia Cocco et al., Journal of Medicinal Chemistry, 2014, 57(24), 10366-10382; T. Satoh et al., Cell Death & Disease, 2013, 4, e644). Therefore, it is anticipated that inhibitors of NLRP3 will block pyroptosis, as well as the release of pro-inflammatory cytokines (e.g. IL-1β) from the cell.
THP-1 cells (ATCC #TIB-202) were grown in RPMI containing L-glutamine (Gibco #11835) supplemented with 1 mM sodium pyruvate (Sigma #S8636) and penicillin (100 units/ml)/streptomycin (0.1 mg/ml) (Sigma #P4333) in 10% Fetal Bovine Serum (FBS) (Sigma #F0804). The cells were routinely passaged and grown to confluency (˜10^6 cells/ml). On the day of the experiment, THP-1 cells were harvested and resuspended into RPMI medium (without FBS). The cells were then counted and viability (>90%) checked by Trypan blue (Sigma #T8154). Appropriate dilutions were made to give a concentration of 625,000 cells/ml. To this diluted cell solution was added LPS (Sigma #L4524) to give a 1 μg/ml Final Assay Concentration (FAC). 40 μl of the final preparation was aliquoted into each well of a 96-well plate. The plate thus prepared was used for compound screening.
The following method step-by-step assay was followed for compound screening. • 1. Seed THP-1 cells (25,000 cells/well) containing 1.0 μg/ml LPS in 40 μl of RPMI medium (without FBS) in 96-well, black walled, clear bottom cell culture plates coated with poly-D-lysine (VWR #734-0317) • 2. Add […] compound (8 points half-log dilution, with 10 μM top dose) or vehicle (DMSO 0.1% FAC) to the appropriate wells • 3. Incubate for 3 hrs at 37° C. in 5% CO2 • 4. Add 5 μl nigericin (Sigma #N7143) (FAC 5 μM) to all wells • 5. Incubate for 1 hr at 37° C. and 5% CO2 • 6. At the end of the incubation period, spin plates at 300×g for 3 mins and remove supernatant • 7. Then add 50 μl of resazurin (Sigma #R7017) (FAC 100 μM resazurin in RPMI medium without FBS) and incubate plates for a further 1-2 hrs at 37° C. and 5% CO2 • 8. Plates were read in an Envision reader at Ex 560 nm and Em 590 nm • 9. IC50 data is fitted to a non-linear regression equation (log inhibitor vs response-variable slope 4-parameters)

Chain of NLRP3 (Q96P20 whole entry): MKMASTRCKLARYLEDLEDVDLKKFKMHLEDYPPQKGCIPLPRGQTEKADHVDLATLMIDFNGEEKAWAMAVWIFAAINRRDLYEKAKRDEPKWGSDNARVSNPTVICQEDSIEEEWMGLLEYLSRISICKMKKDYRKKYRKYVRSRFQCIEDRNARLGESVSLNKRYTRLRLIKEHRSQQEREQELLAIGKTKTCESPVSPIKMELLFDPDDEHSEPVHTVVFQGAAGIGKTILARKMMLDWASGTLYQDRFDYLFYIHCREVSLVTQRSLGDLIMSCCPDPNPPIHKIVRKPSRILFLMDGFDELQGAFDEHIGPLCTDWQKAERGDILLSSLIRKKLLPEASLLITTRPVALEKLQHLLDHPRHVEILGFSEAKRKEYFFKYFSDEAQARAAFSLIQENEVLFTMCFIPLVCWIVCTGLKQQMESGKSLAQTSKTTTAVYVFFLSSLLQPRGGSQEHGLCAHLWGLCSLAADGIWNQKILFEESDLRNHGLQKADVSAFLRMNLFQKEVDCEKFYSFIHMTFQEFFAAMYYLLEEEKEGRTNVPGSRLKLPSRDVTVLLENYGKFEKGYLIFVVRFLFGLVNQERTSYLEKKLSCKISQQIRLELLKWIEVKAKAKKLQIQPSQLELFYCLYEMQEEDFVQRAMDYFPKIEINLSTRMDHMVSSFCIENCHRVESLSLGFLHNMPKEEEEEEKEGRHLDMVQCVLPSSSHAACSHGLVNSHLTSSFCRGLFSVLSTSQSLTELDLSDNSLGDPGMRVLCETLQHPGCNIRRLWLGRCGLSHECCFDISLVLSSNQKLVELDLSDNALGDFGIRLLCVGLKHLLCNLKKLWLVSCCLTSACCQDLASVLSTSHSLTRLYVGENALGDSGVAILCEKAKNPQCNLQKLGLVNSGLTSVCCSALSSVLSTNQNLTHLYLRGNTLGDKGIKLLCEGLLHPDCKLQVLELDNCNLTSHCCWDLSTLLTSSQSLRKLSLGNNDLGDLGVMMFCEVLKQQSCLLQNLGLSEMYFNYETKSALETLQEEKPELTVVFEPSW

First: CN(CC(O)CO)C(=O)c1cc(S(=O)(=O)NC(=O)Nc2c3c(cc4c2CCC4)CCC3)nn1C (stereo not shown) [Example 19, N-(2,3-Dihydroxypropyl)-3-(N-((1,2,3,5,6,7-hexahydro-s-indacen-4-yl)carbamoyl)sulfamoyl)-N,1-dimethyl-1H-pyrazole-5-carboxamide]
Second: Cn1nc(S(=O)(=O)NC(=O)Nc2c3c(cc4c2CCC4)CCC3)cc1C(=O)NCCO [Example 76, 3-(N-((1,2,3,5,6,7-Hexahydro-s-indacen-4-yl)carbamoyl)sulfamoyl)-N-(2-hydroxyethyl)-1-methyl-1H-pyrazole-5-carboxamide]
The IC50 of the first is lower: 640 to 2560 nM for the first, 2560 to 10000 nM for the second.

`CC(C)c1cccc(C(C)C)c1NC(=O)NS(=O)(=O)c1cc(C(=O)N2CCOCC2)n(C)n1` [Example 21, N-((2,6-Diisopropylphenyl)carbamoyl)-1-methyl-5-(morpholine-4-carbonyl)-1H-pyrazole-3-sulfonamide] and `CC(C)c1cccc(C(C)C)c1NC(=O)NS(=O)(=O)c1cc(C(=O)N2CCCC2)n(C)n1` [Example 63, N-((2,6-Diisopropylphenyl)carbamoyl)-1-methyl-5-(pyrrolidine-1-carbonyl)-1H-pyrazole-3-sulfonamide] fall in the same range of IC50: 640 to 2560 nM for the first, 640 to 2560 nM for the second.

First: COCCN(C)C(=O)c1cc(S(=O)(=O)NC(=O)Nc2c(C(C)C)cccc2C(C)C)nn1C [Example 22, 3-(N-((2,6-Diisopropylphenyl)carbamoyl)sulfamoyl)-N-(2-methoxyethyl)-N,1-dimethyl-1H-pyrazole-5-carboxamide]
Second: CC(C)c1cccc(C(C)C)c1NC(=O)NS(=O)(=O)c1cc(C(=O)N(C)CCO)n(C)n1 [Example 75, 3-(N-((2,6-Diisopropylphenyl)carbamoyl)sulfamoyl)-N-(2-hydroxyethyl)-N,1-dimethyl-1H-pyrazole-5-carboxamide]
The IC50 of the first is higher: 2560 to 10000 nM for the first, 640 to 2560 nM for the second. The second is the more potent here.

First: COCCN(CCOC)C(=O)c1cc(S(=O)(=O)NC(=O)Nc2c(C(C)C)cccc2C(C)C)nn1C [Example 23, 3-(N-((2,6-Diisopropylphenyl)carbamoyl)sulfamoyl)-N,N-bis(2-methoxyethyl)-1-methyl-1H-pyrazole-5-carboxamide]
Second: CCN(CC)C(=O)c1cc(S(=O)(=O)NC(=O)Nc2c(C(C)C)cccc2C(C)C)nn1C [Example 57, 3-(N-((2,6-Diisopropylphenyl)carbamoyl)sulfamoyl)-N,N-diethyl-1-methyl-1H-pyrazole-5-carboxamide]
The IC50 of the first is higher: 2560 to 10000 nM for the first, 640 to 2560 nM for the second.

First: Cn1nc(S(=O)(=O)NC(=O)Nc2c3c(cc4c2CCC4)CCC3)cc1C(=O)N1CCC(O)CC1 [Example 24, N-((1,2,3,5,6,7-Hexahydro-s-indacen-4-yl)carbamoyl)-5-(4-hydroxypiperidine-1-carbonyl)-1-methyl-1H-pyrazole-3-sulfonamide]
Second: Cn1nc(S(=O)(=O)NC(=O)Nc2c3c(cc4c2CCC4)CCC3)cc1C(=O)N1CCCC1 [Example 59, N-((1,2,3,5,6,7-Hexahydro-s-indacen-4-yl)carbamoyl)-1-methyl-5-(pyrrolidine-1-carbonyl)-1H-pyrazole-3-sulfonamide]
The IC50 of the first is higher: 2560 to 10000 nM for the first, 640 to 2560 nM for the second.

First: COC1CCN(C(=O)c2cc(S(=O)(=O)NC(=O)Nc3c4c(cc5c3CCC5)CCC4)nn2C)C1 (stereo not shown) [Example 25, N-((1,2,3,5,6,7-Hexahydro-s-indacen-4-yl)carbamoyl)-5-(3-methoxypyrrolidine-1-carbonyl)-1-methyl-1H-pyrazole-3-sulfonamide]
Second: Cn1nc(S(=O)(=O)NC(=O)Nc2c3c(cc4c2CCC4)CCC3)cc1C(=O)N1CC(F)C1 [Example 61, 5-(3-Fluoroazetidine-1-carbonyl)-N-((1,2,3,5,6,7-hexahydro-s-indacen-4-yl)carbamoyl)-1-methyl-1H-pyrazole-3-sulfonamide]
The IC50 of the first is higher: 2560 to 10000 nM for the first, 640 to 2560 nM for the second. The second is the more potent here.

`Cn1nc(S(=O)(=O)NC(=O)Nc2c3c(cc4c2CCC4)CCC3)cc1C(=O)N1CCOCC1` [Example 28, N-((1,2,3,5,6,7-Hexahydro-s-indacen-4-yl)carbamoyl)-1-methyl-5-(morpholine-4-carbonyl)-1H-pyrazole-3-sulfonamide] and `CNC(=O)c1cc(S(=O)(=O)NC(=O)Nc2c3c(cc4c2CCC4)CCC3)nn1C` [Example 66, 3-(N-((1,2,3,5,6,7-Hexahydro-s-indacen-4-yl)carbamoyl)sulfamoyl)-N,1-dimethyl-1H-pyrazole-5-carboxamide] fall in the same range of IC50: 640 to 2560 nM for the first, 640 to 2560 nM for the second.

`CC(C)c1cc(F)cc(C(C)C)c1NC(=O)NS(=O)(=O)c1cc(C(=O)N2CCC2)n(C(C)C)n1` [Example 30, 5-(Azetidine-1-carbonyl)-N-((4-fluoro-2,6-diisopropylphenyl)carbamoyl)-1-isopropyl-1H-pyrazole-3-sulfonamide] and `CCN(CC)C(=O)c1cc(S(=O)(=O)NC(=O)Nc2c(C(C)C)cc(F)cc2C(C)C)nn1C` [Example 48, N,N-Diethyl-3-(N-((4-fluoro-2,6-diisopropylphenyl)carbamoyl)sulfamoyl)-1-methyl-1H-pyrazole-5-carboxamide] fall in the same range of IC50: 160 to 640 nM for the first, 160 to 640 nM for the second.

`CC(C)c1ccc(-c2cncnc2)cc1NC(=O)NS(=O)(=O)c1cc(C(=O)N(C)C)n(C)n1` [Example 34, 3-(N-((2-Isopropyl-5-(pyrimidin-5-yl)phenyl)carbamoyl)sulfamoyl)-N,N,1-trimethyl-1H-pyrazole-5-carboxamide] and `CC(C)c1ccc(-c2cnn(C)c2)cc1NC(=O)NS(=O)(=O)c1cc(C(=O)N(C)C)n(C)n1` [Example 36, 3-(N-((2-Isopropyl-5-(1-methyl-1H-pyrazol-4-yl)phenyl)carbamoyl)sulfamoyl)-N,N,1-trimethyl-1H-pyrazole-5-carboxamide] fall in the same range of IC50: 640 to 2560 nM for the first, 640 to 2560 nM for the second.

`CC(C)NC(=O)c1cc(S(=O)(=O)NC(=O)Nc2c(C(C)C)cccc2C(C)C)nn1C` [Example 38, 3-(N-((2,6-Diisopropylphenyl)carbamoyl)sulfamoyl)-N-isopropyl-1-methyl-1H-pyrazole-5-carboxamide] and `CC(C)c1cccc(C(C)C)c1NC(=O)NS(=O)(=O)c1cc(C(=O)N(C)CC#N)n(C)n1` [Example 40, N-(Cyanomethyl)-3-(N-((2,6-diisopropylphenyl)carbamoyl)sulfamoyl)-N,1-dimethyl-1H-pyrazole-5-carboxamide] fall in the same range of IC50: 2560 to 10000 nM for the first, 2560 to 10000 nM for the second.

`CC(C)NC(=O)c1cc(S(=O)(=O)NC(=O)Nc2c3c(cc4c2CCC4)CCC3)nn1C` [Example 46, 3-(N-((1,2,3,5,6,7-Hexahydro-s-indacen-4-yl)carbamoyl)sulfamoyl)-N-isopropyl-1-methyl-1H-pyrazole-5-carboxamide] and `COCCNC(=O)c1cc(S(=O)(=O)NC(=O)Nc2c3c(cc4c2CCC4)CCC3)nn1C` [Example 77, 3-(N-((1,2,3,5,6,7-Hexahydro-s-indacen-4-yl)carbamoyl)sulfamoyl)-N-(2-methoxyethyl)-1-methyl-1H-pyrazole-5-carboxamide] fall in the same range of IC50: 2560 to 10000 nM for the first, 2560 to 10000 nM for the second.
